The values that follow come from patent US20240239788A1, “SMALL MOLECULE INHIBITORS OF KRAS G12D MUTANT” (Merck Sharp & Dohme LLC, priority 2021, published 2024).

Experiment [1] has as its target KRAS protein containing G12D mutation (Homo sapiens (Human), UniProt P01116, G12D). As to the kind of experiment: SOS-catalyzed nucleotide exchange assay (GNE), TR-FRET. In kind it is biochemical. The settings on record: biotinylated KRAS G12D, SOS and GTP, 60-minute incubation. As to the method: Compounds are added to this complex and then after a 60-minute incubation time the mixture is treated with SOS and unlabeled GTP. Small molecule inhibitors stabilize the Bodipy-GDP complex whereas the untreated protein rapidly exchanges Bodipy-GDP for unlabeled GTP resulting in reduced TR-FRET signal.
This solution is referred to as biotinylated KRAS G12D stock solution.
On the technique in general: In TR-FRET formats the signal depends on donor and acceptor labels being close together.

For experiment [2], the system named is AsPC-1 cells containing homozygous KRAS-G12D activating mutation. Kind of experiment: Cellular phospho-ERK assay with 10% FBS (Examples 107a-256). Type of experiment: cell-based. As to the method:
5% CO2 for 2 hours. […] Assay plates were read on a EnVision Multimode Plate Reader (PerkinElmer) and the ratio of p-Erk vs total Erk in each well was used as the final readout.

Setting [3] is: Homo sapiens, ASPC1, 2 h, read-out: IC50 (nM) pERK (cell with FBS 10%), AsPC-1 cells, 10% fetal bovine serum, 2 hours, ratio of p-Erk vs total Erk.
The mark [4] stands for this setting: read-out: IC50 (nM) pERK (cell with FBS 10%), AsPC-1 cells, 10% fetal bovine serum, 2 hours, ratio of p-Erk vs total Erk.

Where a name gives a salt, the structure may show the parent alone. Read-outs that look alike come from different tables or passages of the source.

KRAS protein containing G12D mutation, sequence (P01116 other isoform, or with tags, fused parts or gaps G12D (already in the parent)): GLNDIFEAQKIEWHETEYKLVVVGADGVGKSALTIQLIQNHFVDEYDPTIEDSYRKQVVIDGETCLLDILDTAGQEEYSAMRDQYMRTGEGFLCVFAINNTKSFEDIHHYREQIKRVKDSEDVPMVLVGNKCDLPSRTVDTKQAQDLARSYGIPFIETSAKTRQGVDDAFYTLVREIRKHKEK

`CN(C)C[C@@]1(COc2nc(N3C[C@H]4CC[C@@H](C3)N4)c3cc(F)c(-c4c(C(F)(F)F)c(Cl)cc5cnn(C)c45)c(F)c3n2)CC1(F)F` (single isomer, unassigned) [Ex. 201b]: the IC50 was determined as 45.9 nM in experiment [1] and 15600 nM in experiment [2] (setting [3]).

With `CN(C[C@@]1(COc2nc(N3CC4CC[C@@](C)(C3)N4)c3cc(F)c(-c4cc(O)cc5cccc(Cl)c45)c(F)c3n2)CC1(F)F)C1COC1` (single isomer, unassigned) [Ex. 220], the values for the IC50 in experiment [1] and in experiment [2] (setting [3]) were 470 nM and 7830 nM, respectively.

As for `C#Cc1cccc2cc(N)nc(-c3c(F)cc4c(N5CC6CCC(C5)N6)nc(OC[C@@]56CCCN5C[C@H](F)C6)nc4c3F)c12` (single isomer, unassigned) [Ex. 148a], the IC50 in experiment [1] amounted to 13.6 nM; in experiment [2] (setting [4]) it was 235 nM.

`C#Cc1cccc2cc(O)c(C)c(-c3c(F)cc4c(N5CC6CC[C@@](C)(C5)N6)nc(OC[C@@]56CCCN5C[C@H](F)C6)nc4c3F)c12` (single isomer, unassigned) [Ex. 204a]: the IC50 in experiment [1] is 1.13 nM; in experiment [2] (setting [4]), 64.2 nM.

As to `C[C@]12CC[C@H](CN(c3nc(OC[C@@]45CCCN4C[C@H](F)C5)nc4c(F)c(-c5c6cn[nH]c6cc6cccc(Cl)c56)c(F)cc34)C1)N2` [Ex. 187, 5-chloro-4-(6,8-difluoro-2-(((2R,7aS)-2-fluorotetrahydro-1H-pyrrolizin-7a(5H)-yl)-methoxy)-4-((1S,5R)-1-methyl-3,8-diaza-bicyclo[3.2.1]octan-3-yl)quinazolin-7-yl)-1H-benzo[f]indazole], the values for the IC50 in experiment [1] and in experiment [2] (setting [3]) were 27.3 nM and 1100 nM, respectively.

Turning to `C[C@]12CC[C@H](CN(c3nc(OC[C@@]45CCCN4C[C@H](F)C5)nc4c(F)c(-c5nc(N)nc6cccc(Cl)c56)c(F)cc34)C1)N2` [Ex. 188, 5-chloro-6′,8′-difluoro-2′-(((2R,7aS)-2-fluoro-tetrahydro-1H-pyrrol-izin-7a(5H)-yl)meth-oxy)-4'-((1S,5R)-1-methyl-3,8-diaza-bicyclo[3.2.1]octan-3-yl)-[4,7′-biquinazolin]-2-amine], the IC50 came to 3400 nM in experiment [1] and 30000 nM in experiment [2] (setting [3]).

On to `CN1CCC[C@H]1COc1nc(N2C[C@H]3CC[C@@](C)(C2)N3)c2cc(F)c(-c3cc(O)cc4cccc(Cl)c34)c(F)c2n1` [Ex. 185, 5-chloro-4-(6,8-difluoro-4-((1S,5R)-1-methyl-3,8-diaza-bicyclo-[3.2.1]octan-3-yl)-2-(((S)-1-methyl-pyrrolidin-2-yl)meth-oxy)quinazolin-7-yl)-naphthalen-2-ol], for which the IC50 in experiment [1] amounted to 732 nM; in experiment [2] (setting [3]), 7040 nM.

Consider `CO[C@@H]1CCN(C[C@@]2(COc3nc(N4CC5CC[C@@](C)(C4)N5)c4cc(F)c(-c5cc(O)cc6cccc(Cl)c56)c(F)c4n3)CC2(F)F)C1` (single isomer, unassigned) [Ex. 215a], for which the IC50 in experiment [1] worked out at 5.06 nM; in experiment [2] (setting [4]), 14000 nM.

`Cc1cc2[nH]nc(C)c2c(-c2c(F)cc3c(N4CC5CCC(C4)N5)nc(OC[C@@]45CCCN4C[C@H](F)C5)nc3c2F)c1OC(F)(F)F` (single isomer, unassigned) [Ex. 232b]: the values for the IC50 in experiment [1] and in experiment [2] (setting [4]) were 5.9 nM and 155 nM, respectively.

As for `C#Cc1c(F)ccc2cc(O)cc(-c3c(F)cc4c(N5CC6CC[C@@](C)(C5)N6)nc(OC[C@@]56CCCN5C[C@H](F)C6)nc4c3F)c12` (single isomer, unassigned) [Ex. 177b], the IC50 turned out to be 51.7 nM in experiment [1] and 588 nM in experiment [2] (setting [4]).

On to `CCc1cccc2cc(O)cc(-c3c(F)cc4c(N5CC6CC[C@@](C)(C5)N6)nc(OC[C@@]56CCCN5C[C@H](F)C6)nc4c3F)c12` (single isomer, unassigned) [Ex. 178b], for which the IC50 in experiment [1] is 210 nM; in experiment [2] (setting [4]), 4580 nM.

With `C#Cc1cccc2cc(O)c(C)c(-c3c(F)cc4c(N5CC6CC[C@@](C)(C5)N6)nc(OC[C@@]56CCCN5C[C@H](F)C6)nc4c3F)c12` (single isomer, unassigned) [Ex. 204b], the IC50 worked out at 23.4 nM in experiment [1] and 443 nM in experiment [2] (setting [4]).

Regarding `C[C@]12CCC(CN(c3nc(OC[C@]4(CN[C@H]5C[C@@H](O)C5)CC4(F)F)nc4c(F)c(-c5cc(O)cc6cccc(Cl)c56)c(F)cc34)C1)N2` (single isomer, unassigned) [Ex. 216a], the IC50 in experiment [1] was 6.65 nM; in experiment [2] (setting [4]), 3090 nM.

Turning to `Cc1cc2[nH]nc(C#N)c2c(-c2c(F)cc3c(N4C[C@H]5CC[C@@H](C4)N5)nc(OC[C@@]45CCCN4C[C@H](F)C5)nc3c2F)c1C(F)(F)F` (single isomer, unassigned) [227b], the IC50 in experiment [1] worked out at 1.02 nM; in experiment [2] (setting [4]), 32.6 nM.

Turning to `C[C@]12CC[C@H](CN(c3nc(OC[C@H]4CCNC4)nc4c(F)c(-c5cc(O)cc6ccccc56)c(Cl)cc34)C1)N2` [Example 119, 4-(6-chloro-8-fluoro-4-((1S,5R)-1-methyl-3,8-diazabicyclo[3.2.1]octan-3-yl)-2-(((S)-pyrrolidin-3-yl)methoxy)quinazolin-7-yl)naphthalen-2-ol, TFA], the IC50 in experiment [1] was 1440 nM; in experiment [2] (setting [3]) it was 30000 nM.

As to `CN(C[C@@]1(COc2nc(N3C[C@H]4CC[C@@](C)(C3)N4)c3cc(F)c(-c4cc(O)cc5cccc(Cl)c45)c(F)c3n2)CC1(F)F)[C@@H]1CCC[C@H]1O` [Ex. 217a, 5-chloro-4-(2-(((R)-2,2-difluoro-1-((((1R,2R)-2-hydroxycyclopentyl)-(methyl)amino)methyl)cyclopropyl)methoxy)-6,8-difluoro-4-((1S,5R)-1-methyl-3,8-diazabicyclo[3.2.1]octan-3-yl)quinazolin-7-yl)naphthalen-2-ol], the IC50 in experiment [1] came out at 12.7 nM; in experiment [2] (setting [3]) it was 2640 nM.

Turning to `Cc1nc(N)nc(-c2c(F)cc3c(N4C[C@H]5CC[C@@H](C4)N5)nc(OC[C@@]45CCCN4C[C@H](F)C5)nc3c2F)c1C(F)(F)F` [Ex. 135, 4-(4-((1R,5S)-3,8-diazabicyclo[3.2.1]octan-3-yl)-6,8-difluoro-2-(((2R,7aS)-2-fluorotetrahydro-1H-pyrrolizin-7a(5H)-yl)methoxy)quinazolin-7-yl)-6-methyl-5-(trifluoromethyl)pyrimidin-2-amine], the IC50 in experiment [1] was 54.6 nM; in experiment [2] (setting [3]) it was 469 nM.

Take `C[C@]12CC[C@H](CN(c3nc(OC[C@@H]4CCN(C5CCCCC5O)C4)nc4c(F)c(-c5cc(O)cc6ccccc56)c(Cl)cc34)C1)N2` (stereo partly drawn) [Example 121, 4-(6-chloro-8-fluoro-2-(((3R)-1-(2-hydroxycyclohexyl)pyrrolidin-3-yl)methoxy)-4-((1S,5R)-1-methyl-3,8-diazabicyclo[3.2.1]octan-3-yl)quinazolin-7-yl)naphthalen-2-ol, TFA]: the values for the IC50 in experiment [1] and in experiment [2] (setting [3]) were 615 nM and 11400 nM, respectively.

Regarding `Nc1cc(F)c(C(F)(F)F)c(-c2c(F)cc3c(N4CC5CCC(C4)N5)nc(OC[C@@]45CCCN4C[C@H](F)C5)nc3c2F)c1F` (single isomer, unassigned) [Ex. 145b], the results for the IC50 in experiment [1] and in experiment [2] (setting [4]) were 14.1 nM and 358 nM, respectively.

As for `Cc1cc2[nH]nc(C#N)c2c(-c2c(F)cc3c(N4C[C@H]5CC[C@@H](C4)N5)nc(OC[C@@]45CCCN4C[C@H](F)C5)nc3c2F)c1C(F)(F)F` (single isomer, unassigned) [Ex. 227a], the values for the IC50 in experiment [1] and in experiment [2] (setting [4]) were 190 nM and 1520 nM, respectively.

Turning to `C[C@]12CC[C@H](CN(c3nc(OC[C@@]45CCCN4C[C@H](F)C5)nc4c(F)c(-c5c(F)cc(F)c6oc(N)nc56)c(Cl)cc34)C1)N2` (single isomer, unassigned) [Ex. 170b], the values for the IC50 in experiment [1] and in experiment [2] (setting [4]) were 874 nM and 14900 nM, respectively.

For `Oc1cc(-c2c(F)cc3c(N4CC5CCC(C4)N5)nc(OC[C@@]45CCCN4C[C@H](F)C5)nc3c2F)c2c(Cl)cccc2c1` (single isomer, unassigned) [Ex. 160a], the figures for the IC50 in experiment [1] and in experiment [2] (setting [4]) were 3.3 nM and 882 nM, respectively.

With `C[C@]12CCC(CN(c3nc(OC[C@@]45CCCN4C[C@H](F)C5)nc4c(F)c(-c5cc(O)cn6ncc(Cl)c56)c(F)cc34)C1)N2` (single isomer, unassigned) [Ex. 230a, TFA], the IC50 in experiment [1] came out at 30.9 nM; in experiment [2] (read-out: IC50 (nM) pERK (cell with FBS 10%), AsPC-1 cells, 10% fetal bovine serum, 2 hours, ratio of p-Erk vs total Erk, TFA), 1450 nM.

Consider `C#Cc1cccc2cc3[nH]ncc3c(-c3c(F)cc4c(N5C[C@H]6CC[C@@](C)(C5)N6)nc(OC[C@@]56CCCN5C[C@H](F)C6)nc4c3F)c12` [Ex. 195, 4-(6,8-difluoro-2-(((2R, 7aS)-2-fluorotetra-hydro-1H-pyrrolizin-7a(5H)-yl)methoxy)-4-((1S,5R)-1-methyl-3,8-diazabicyclo[3.2.1]-octan-3-yl)quinazolin-7-yl)-5-ethynyl-1H-benzo[f]indazole], for which the values for the IC50 in experiment [1] and in experiment [2] (setting [3]) were 4.36 nM and 79.6 nM, respectively.

As for `Cc1cc2[nH]nc(C)c2c(-c2c(F)cc3c(N4CC5CCC(C4)N5)nc(OC[C@@]45CCCN4C[C@H](F)C5)nc3c2F)c1C(F)(F)F` (single isomer, unassigned) [Ex. 128a], the IC50 stood at 1.28 nM in experiment [1] and 43.4 nM in experiment [2] (setting [4]).

In the case of `C[C@]12CCC(CN(c3nc(OCC45CCCN4CC(C(F)F)C5)nc4c(F)c(-c5cc(O)cc6cccc(Cl)c56)c(F)cc34)C1)N2` (single isomer, unassigned) [Ex. 173-2a], the IC50 in experiment [1] amounted to 266 nM; in experiment [2] (setting [4]), 10200 nM.

On to `C[C@]12CCC(CN(c3nc(OC[C@@]45CCCN4C[C@H](F)C5)nc4c(F)c(-c5cc(O)cc6cc(F)cc(Cl)c56)c(F)cc34)C1)N2` (single isomer, unassigned) [Ex. 180b], for which the IC50 is 744 nM in experiment [1] and 14200 nM in experiment [2] (setting [4]).
